In brackets after ≈: the same amount, converted by molar mass.
Key:
Type in all cases: functional
Klebsiella pneumoniae [1] = experiment: Antibacterial activity against plasmid-mediated AmpC beta-Lactamase DHA-1 and ESBL-producing Klebsiella pneumoniae by Etest
Klebsiella pneumoniae [2] = experiment: Antibacterial activity against ESBL-producing Klebsiella pneumoniae by Etest
Klebsiella pneumoniae [3] = experiment: Antibacterial activity against plasmid-mediated AmpC beta-Lactamase DHA-1 and ESBL-producing Klebsiella pneumoniae by Etest in presence of Tazobactam
Klebsiella pneumoniae [4] = experiment: Antibacterial activity against ESBL-producing Klebsiella pneumoniae by Etest in presence of Tazobactam

Row | Compound | MIC (Klebsiella pneumoniae [1]) [µg/mL] | MIC (Klebsiella pneumoniae [2]) [µg/mL] | MIC50 (Klebsiella pneumoniae [3]) [µg/mL] | MIC90 (Klebsiella pneumoniae [3]) [µg/mL] | MIC50 (Klebsiella pneumoniae [4]) [µg/mL] | MIC90 (Klebsiella pneumoniae [4]) [µg/mL] | MIC50 (Klebsiella pneumoniae [1]) [µg/mL] | MIC90 (Klebsiella pneumoniae [1]) [µg/mL] | MIC50 (Klebsiella pneumoniae [2]) [µg/mL] | MIC90 (Klebsiella pneumoniae [2]) [µg/mL]
1 | C[C@@H](O)[C@H]1C(=O)N2C(C(=O)O)=C(S[C@@H]3CN[C@H](C(=O)N(C)C)C3)[C@H](C)[C@H]12 [MEROPENEM] |  |  |  |  |  |  | 0.12 (≈ 0.313 µM) | 0.5 (≈ 1.3 µM) | 0.03 (≈ 0.0782 µM) | 0.06 (≈ 0.156 µM)
2 | NCC[C@H](O)C(=O)N[C@@H]1C[C@H](N)[C@@H](O[C@H]2O[C@H](CN)[C@@H](O)[C@H](O)[C@H]2O)[C@H](O)[C@H]1O[C@H]1O[C@H](CO)[C@@H](O)[C@H](N)[C@H]1O [AMIKACIN] |  |  |  |  |  |  | > 256 | > 256 | 4 (≈ 6.83 µM) | 32 (≈ 54.6 µM)
3 | C[C@@H](O)[C@H]1C(=O)N2C(C(=O)O)=C(SCCNC=N)C[C@H]12 [IMIPENEM ANHYDROUS] |  |  |  |  |  |  | 0.5 (≈ 1.67 µM) | 2 (≈ 6.68 µM) | 0.25 (≈ 0.835 µM) | 0.5 (≈ 1.67 µM)
4 | O=C(O)c1cn(C2CC2)c2cc(N3CCNCC3)c(F)cc2c1=O [CIPROFLOXACIN] |  |  |  |  |  |  | > 32 | > 32 | 0.125 (≈ 0.377 µM) | 8 (≈ 24.1 µM)

Second part, led by results:

Row | MIC (Klebsiella pneumoniae [1]) [µg/mL] | MIC (Klebsiella pneumoniae [2]) [µg/mL] | MIC50 (Klebsiella pneumoniae [3]) [µg/mL] | MIC90 (Klebsiella pneumoniae [3]) [µg/mL] | MIC50 (Klebsiella pneumoniae [4]) [µg/mL] | MIC90 (Klebsiella pneumoniae [4]) [µg/mL] | Compound | MIC50 (Klebsiella pneumoniae [1]) [µg/mL] | MIC90 (Klebsiella pneumoniae [1]) [µg/mL] | MIC50 (Klebsiella pneumoniae [2]) [µg/mL] | MIC90 (Klebsiella pneumoniae [2]) [µg/mL]
5 | 0.5 (≈ 1.05 µM) | 0.015 (≈ 0.0315 µM) |  |  |  |  | C[C@@H](O)[C@H]1C(=O)N2C(C(=O)O)=C(S[C@@H]3CN[C@H](C(=O)Nc4cccc(C(=O)O)c4)C3)[C@H](C)[C@H]12 [ERTAPENEM] | 0.5 (≈ 1.05 µM) | 2 (≈ 4.21 µM) | 0.015 (≈ 0.0315 µM) | 0.5 (≈ 1.05 µM)
6 |  |  | 8 | 64 | 8 | 32 | CCN1CCN(C(=O)N[C@@H](C(=O)N[C@@H]2C(=O)N3[C@@H]2SC(C)(C)[C@@H]3C(=O)O)c2ccccc2)C(=O)C1=O [PIPERACILLIN] |  |  |  | 

Source: ChEMBL document CHEMBL1671765, “Microbiologic and clinical implications of bacteremia due to extended-spectrum-beta-lactamase-producing Klebsiella pneumoniae with or without plasmid-mediated AmpC beta-lactamase DHA-1” (2010)
